Legend:
primary rat hepatocytes [1] = experiment: Light scattering from hepatocytes seeded on a porous Si photonic crystal (CCD spectrometer, in incubator); assay type: cell-based; details: 50 μM Cd^2+
Procedure: Hepatocytes were isolated from 2-3 month old adult female Lewis rats by collagenase perfusion as previously described. Hepatocytes were then seeded on the polystyrene-coated porous silicon samples or on tissue-culture polystyrene dishes.
Hepatocytes were then seeded on the activated polystyrene-coated chip.
Cell seeding. Porous Si photonic crystal samples were sterilized in a 35 mm dish with 2 mL of 100% ethanol for 1 hour. Ethanol was removed and the samples were allowed to dry in a sterile laminar-flow hood. The samples and dish were washed twice with sterile water. To improve adhesion, 2 mL of a 0.1 mg/mL solution of rat-tail collagen (collagen I) was added to the dish, and the samples were incubated at 37° C. for one h. The collagen-coated samples were then washed once with sterile water, and once with growth media. Media for all experiments was DMEM with high glucose (Invitrogen), 10% fetal bovine serum, supplemented with 0.5 U/mL insulin, 7 ng/mL glucagon, 7.5 mg/mL hydrocortisone, 10 U/mL penicillin, and 10 mg/mL streptomycin. Hepatocytes were isolated from 2-3 month old adult female Lewis rats by collagenase perfusion as previously described. Less than one hour after isolation, 1.25×10^6 cells per dish were seeded in 2 mL of media for scattering experiments and 6×10^5 cells per dish for microscope experiments. As the porous Si samples were smaller than the dish, some cells settled and attached to the polystyrene surface. Unattached cells were removed after one hour and dishes were incubated at 37° C., 5% CO2 for 24 hours to allow spreading before the start of observation.
Reflectance spectra were collected using an Ocean Optics S-2000 CCD spectrometer fitted with a microscope objective lens coupled to either a bifurcated fiber optic cable (for specular measurements) or a single fiber optic cable (for scattering measurements). […]

primary rat hepatocytes [2] = experiment: Phase-contrast microscopy of hepatocytes on tissue-culture polystyrene plates; details: 50 μM Cd^2+
Procedure: Optical measurements. Images for cells seeded on porous silicon photonic crystals were collected using a reflectance microscope and a 10× LWD objective with on-normal and off-normal illumination using a white light source. Phase contrast images for cells seeded on tissue cultured polystyrene multi-well plates were obtained on a Nikon TE200 microscope with a 10× objective and captured with a camera. Images were processed on Metamorph and JImage. […] Cells were seeded on the porous Si chips at less than 100% coverage so that the porous silicon background could provide contrast. In order to follow the same subset of cells throughout the course of morphology changes for the Cd^2+ toxicity studies, the cells were not incubated while monitoring with the microscope. Rather, cells were placed on a chip and Cd^2+ concentration was adjusted to a final concentration of 200 μM. Pictures were obtained at time 0 and 85 minutes.

rat hepatocyte cells = experiment: MTT cell viability assay; assay type: cell-based; details: 50 μM Cd^2+, after ~10 h
hepatocytes [3] = experiment: Reflectance microscopy of non-incubated hepatocytes on porous Si photonic crystal; assay type: cell-based, rat; details: 200 μM Cd^2+, eighty-five min after introduction, cells not incubated
Procedure: More particularly, measurement of light scattered from a monolayer of hepatocyte cells on a porous Si photonic crystal is used to measure changes in cellular morphology. Data were collected after hepatocytes were administered a toxic dose of aqueous cadmium chloride (200 μM). […] Upon exposure to Cd^2+, characteristic changes in morphology that accompany loss of viability, such as blebbing and increased granularity, are observed (FIG. 9b). The optical setup produces more dramatic images upon exposure to a toxic dose of Cd^2+. In this arrangement, cells appear with a color characteristic of the underlying photonic crystal, while the regions that are not covered with cells appear darker (FIG. 5a). After loss of viability, the cytoplasm appears brighter, leading to greater nuclear and cell boundary contrast (FIG. 5b).
Optical measurements. […] Images were processed on Metamorph and JImage. […] Pictures were obtained at time 0 and 85 minutes.

hepatocytes [4] = details: Cd^2+ in the 50-400 μM range; cited from earlier work

## [Cl][Cd][Cl] [Cd^2+, cadmium chloride]
Primary rat hepatocytes [1]
  time after which intensity of scattered light reaches a constant value: ~10 h
  time after which relative scattered intensity shows a significant increase: ~2 h
  time by which scattering changes precede first loss of viability in MTT stain: ~2 h
Primary rat hepatocytes [2]
  hepatocyte morphology by phase contrast: granular appearance increases substantially, even after 2 h
  time by which most cellular features become indistinguishable: ≤ 14 h
Rat hepatocyte cells
  viability according to MTT stain, % of the initial value: ~50%
Hepatocytes [3]
  hepatocytes that have lost viability: > 90%
Hepatocytes [4]
  time of cell damage (decrease in membrane and metabolic integrity): within the first hour of exposure
